The record followed here is patent US7718641B2, “Pyrrolo [3,4-H] isoquinoline compounds and methods for modulating gated ion channels” (Aros Pharma ApS, priority 2005, dated 2010).

The term ED50 denotes the dose at which the effect has come halfway, by size or by number of responders.

In assay [1] the test system is CFA-induced thermal hyperalgesia. Kind of assay: CFA model, thermal hyperalgesia (Hargreaves plantar test). The format is in vivo, rat. The following applies: CFA 48 h prior. How it is done:
Assessment of thermal hyperalgesia: Baseline and post-treatment withdrawal latencies to a noxious thermal stimulus were measured according to Hargreaves (Hargreaves et al., 1988) using a plantar test analgesia meter (IITC, Woodland Hills, Calif., model # 336). The stimulus intensity was set at 30% of maximum output and the cut-off time was set at 30 seconds. Rats were placed on a glass plate warmed to 28° C. and allowed to habituate to the testing chambers for a minimum of 15 minutes prior to each testing session. The thermal stimulus was applied to the plantar surface of the paw, and the mean latency of three readings on each paw was used as the latency value for each time point. Thermal thresholds were defined as the latency in seconds to the first pain behavior, which includes nocifensive paw withdrawal, flinching, biting and/or licking of the stimulated paw. The mean and standard error of the mean (SEM) were determined for the injured and normal paws for each treatment group.
For comparison, results with morphine (6 mg/kg sc) and indomethacin (30 mg/kg po) are shown. […] Data are expressed as mean±SEM, (n=10). **P<0.01, vs. baseline.

Assay [2] has as its system CFA-induced inflammatory pain. Kind of assay: CFA model of chronic inflammatory pain, hindpaw weight bearing (Incapacitance Tester). The format is in vivo, rat. The following applies: 24 h after CFA, 60 min after drug injection, n=7-8. On the procedure: Rats (body weight 260-300 g) were given a s.c. injection of CFA (50% in saline, 100 μl, Sigma) into the plantar surface of the hindpaw under brief halothane anaesthesia. After 24 h, they were then tested for hindpaw weight bearing responses, as assessed using an Incapacitance Tester (Linton Instrumentation, UK), (Zhu et al., 2005). The instrument incorporates a dual channel scale that separately measures the weight of the animal distributed to each hindpaw. While normal rats distribute their body weight equally between the two hindpaws (50-50), the discrepancy of weight distribution between an injured and non-injured paw is a natural reflection of the discomfort level in the injured paw (nocifensive behavior). The rats were placed in the plastic chamber designed so that each hindpaw rested on a separate transducer pad. […] For each rat, three readings from each paw were taken and then averaged. Side-to-side weight bearing difference was calculated as the average of the absolute value of the difference between two hindpaws from three trials (right paw reading-left paw reading).
Hindpaw weight bearing responses were measured in male Sprague-Dawley rats for 2-3 days prior to being given a hindpaw injection of CFA. Twenty-four hours later baseline responses were measured and rats were then administered Compound A (5, 10 and 20 mg/kg, i.p.), Compound H (10, 30 and 60 mg/kg) and morphine (3, 6 and 10 mg/kg). Weight bearing responses were then measured at 30, 60 and 120 min after drug or vehicle injection (data shown at 60 min.). […] Data are expressed as mean +/−SEM. *P<0.05, **P<0.01, *** P<0.001 vs baseline; +++: P<0.001 vs vehicle. All groups n=7-8.

Take `COc1ccc(F)cc1-c1cc2c(c3c1CCN(C)C3)NC(=O)/C2=N/O` [Compound A, 5-(5-fluoro-2-methoxyphenyl)-6,7,8,9-tetrahydro-3-(hydroxyimino)-8-methyl-1H-pyrrolo[3,2-h]isoquinoline-2(3H)-one]: the “reversal of CFA-induced thermal hyperalgesia” value in assay [1] (3 h after i.p. administration, dose-dependent) is “fully reversing the thermal hyperalgesia”. The ED50 in assay [1] (Rattus norvegicus, ip, measured 3 h after i.p. administration, n=10, read-out: ED50, reversal of CFA-induced thermal hyperalgesia) amounted to 6.5 mg/kg. Also, in assay [2], the “CFA-induced change in hindpaw weight bearing compared with vehicle” value was “marked dose-dependent attenuation in the CFA-induced change in weight bearing”.

With `CCN1CCc2c(-c3ccccc3)cc3c(c2C1)NC(=O)/C3=N/O` [Compound H, 5-phenyl-6,7,8,9-tetrahydro-3-(hydroxyimino)-8-ethyl-1H-pyrrolo[3,2-h]isoquinoline-2(3H)-one], the “CFA-induced change in hindpaw weight bearing compared with vehicle” value in assay [2] is “marked dose-dependent attenuation in the CFA-induced change in weight bearing”.
